Assay: Biodistribution in DU-145 tumor-bearing mice
Format: in vivo
Details: i.v., mean (SD)
Description: (+)-^131I]pIV was prepared using a method described previously. To produce tumors, approximately 5 × 10^6 of the prepared DU-145 cells was injected subcutaneously into the right dorsum of 4-week-old male BALB/c nude mice (15 to 19 g, Japan SLC, Inc.). Biodistribution experiments were performed at approximately 14- to 21-day post-inoculation, i.e., when tumors reached a palpable size. Groups of four mice were intravenously administered with 100 μL of a mixed solution of (+)-^125I]IV-OH (37 kBq) and (+)-^131I]pIV (37 kBq). At 10-min, 1-, 3-, and 24-h post-injections, the mice were killed. Tissues of interest were removed and weighed, and radioactivity counts were determined with an auto well gamma counter and corrected for background radiation. A window from 16 to 71 keV was used for measuring ^125I and one from 300 to 433 keV for ^131I. The crossover of ^125I activity into the ^131I channel was negligible. Correlation factors to eliminate any crossover of ^131I activity into ^125I were determined by measuring the ^131I standard in both windows.

Structure (SMILES): OC1CCCCC1N1CCC(c2ccc([131I])cc2)CC1 (single isomer, unassigned; (+)) [(+)-[^131I]pIV, reference compound]
- Biodistribution of radioactivity, Blood (10 min post-injection): 0.45 (0.03) percent injected dose per gram tissue
- Biodistribution of radioactivity, Blood (1 h post-injection): 0.28 (0.02) percent injected dose per gram tissue
- Biodistribution of radioactivity, Blood (3 h post-injection): 0.17 (0.01) percent injected dose per gram tissue
- Biodistribution of radioactivity, Brain (10 min post-injection): 6.02 (0.74) percent injected dose per gram tissue
- Biodistribution of radioactivity, Brain (1 h post-injection): 6.47 (0.73) percent injected dose per gram tissue
- Biodistribution of radioactivity, Brain (3 h post-injection): 4.12 (0.30) percent injected dose per gram tissue
- Biodistribution of radioactivity, Brain (24 h post-injection): 2.22 (0.10) percent injected dose per gram tissue
- Biodistribution of radioactivity, Heart (10 min post-injection): 8.66 (0.81) percent injected dose per gram tissue
- Biodistribution of radioactivity, Heart (1 h post-injection): 5.55 (0.70) percent injected dose per gram tissue
- Biodistribution of radioactivity, Heart (3 h post-injection): 2.11 (0.37) percent injected dose per gram tissue
- Biodistribution of radioactivity, Heart (24 h post-injection): 0.96 (0.07) percent injected dose per gram tissue
- Biodistribution of radioactivity, Intestine (10 min post-injection): 4.31 (0.78) percent injected dose per gram tissue
- Biodistribution of radioactivity, Intestine (1 h post-injection): 5.14 (0.12) percent injected dose per gram tissue
- Biodistribution of radioactivity, Intestine (3 h post-injection): 3.20 (0.13) percent injected dose per gram tissue
- Biodistribution of radioactivity, Intestine (24 h post-injection): 2.59 (0.24) percent injected dose per gram tissue
- Biodistribution of radioactivity, Kidney (10 min post-injection): 18.47 (1.59) percent injected dose per gram tissue
- Biodistribution of radioactivity, Kidney (1 h post-injection): 11.72 (1.90) percent injected dose per gram tissue
- Biodistribution of radioactivity, Kidney (3 h post-injection): 7.37 (0.89) percent injected dose per gram tissue
- Biodistribution of radioactivity, Kidney (24 h post-injection): 6.15 (0.30) percent injected dose per gram tissue
- Biodistribution of radioactivity, Liver (10 min post-injection): 9.83 (0.39) percent injected dose per gram tissue
- Biodistribution of radioactivity, Liver (1 h post-injection): 13.31 (1.25) percent injected dose per gram tissue
- Biodistribution of radioactivity, Liver (3 h post-injection): 13.05 (0.46) percent injected dose per gram tissue
- Biodistribution of radioactivity, Liver (24 h post-injection): 10.28 (0.59) percent injected dose per gram tissue
- Biodistribution of radioactivity, Lung (10 min post-injection): 26.10 (3.39) percent injected dose per gram tissue
- Biodistribution of radioactivity, Lung (1 h post-injection): 13.13 (3.28) percent injected dose per gram tissue
- Biodistribution of radioactivity, Lung (3 h post-injection): 6.59 (0.56) percent injected dose per gram tissue
- Biodistribution of radioactivity, Lung (24 h post-injection): 3.01 (0.46) percent injected dose per gram tissue
- Biodistribution of radioactivity, Muscle (10 min post-injection): 2.03 (0.53) percent injected dose per gram tissue
- Biodistribution of radioactivity, Muscle (1 h post-injection): 1.62 (0.22) percent injected dose per gram tissue
- Biodistribution of radioactivity, Muscle (3 h post-injection): 0.72 (0.29) percent injected dose per gram tissue
- Biodistribution of radioactivity, Muscle (24 h post-injection): 0.42 (0.03) percent injected dose per gram tissue
- Biodistribution of radioactivity, Pancreas (10 min post-injection): 16.58 (1.82) percent injected dose per gram tissue
- Biodistribution of radioactivity, Pancreas (1 h post-injection): 21.94 (2.50) percent injected dose per gram tissue
- Biodistribution of radioactivity, Pancreas (3 h post-injection): 27.35 (0.24) percent injected dose per gram tissue
- Biodistribution of radioactivity, Pancreas (24 h post-injection): 27.36 (0.70) percent injected dose per gram tissue
- Biodistribution of radioactivity, Spleen (10 min post-injection): 8.12 (1.09) percent injected dose per gram tissue
- Biodistribution of radioactivity, Spleen (1 h post-injection): 8.99 (1.00) percent injected dose per gram tissue
- Biodistribution of radioactivity, Spleen (3 h post-injection): 4.04 (0.30) percent injected dose per gram tissue
- Biodistribution of radioactivity, Spleen (24 h post-injection): 2.52 (0.23) percent injected dose per gram tissue
- Biodistribution of radioactivity, Stomach (10 min post-injection): 1.07 (0.32) percent injected dose
- Biodistribution of radioactivity, Stomach (1 h post-injection): 0.73 (0.26) percent injected dose
- Biodistribution of radioactivity, Stomach (3 h post-injection): 0.62 (0.19) percent injected dose
- Biodistribution of radioactivity, Stomach (24 h post-injection): 0.49 (0.06) percent injected dose
- Biodistribution of radioactivity, Tumor (10 min post-injection): 7.20 (0.40) percent injected dose per gram tissue
- Biodistribution of radioactivity, Tumor (1 h post-injection): 5.79 (0.37) percent injected dose per gram tissue
- Biodistribution of radioactivity, Tumor (3 h post-injection): 6.46 (3.42) percent injected dose per gram tissue
- Biodistribution of radioactivity, Tumor (24 h post-injection): 6.81 (2.60) percent injected dose per gram tissue

Reference: paper PMC3524758, “Development and evaluation of a novel radioiodinated vesamicol analog as a sigma receptor imaging agent” (EJNMMI Research, 2012)
